Assay results from ChEMBL document CHEMBL1143921, “Structure-based design and synthesis of benzimidazole derivatives as dipeptidyl peptidase IV inhibitors” (Bioorg Med Chem Lett, 2008).

Columns and labels:
in vitro [1] = conditions: human, liver microsomes
in vitro [2] = conditions: rat, liver microsomes
[3] = AUC in rat at 8.4 mg/kg, po; type: ADME, organism-based; set-up: dose 8.4 mg/kg, route oral; conditions: plasma
[4] = Half life in rat at 8.4 mg/kg, po; type: ADME, organism-based; set-up: dose 8.4 mg/kg, route oral; conditions: in vivo
[5] = Half life in rat at 0.7 mg/kg, iv; type: ADME, organism-based; set-up: dose 0.7 mg/kg, route intravenous; conditions: in vivo
[6] = Volume of distribution at steady state in rat at 0.7 mg/kg, iv or 8.4 mg/kg, po; type: ADME, organism-based; conditions: in vivo, read-out: Vdss
[7] = Bioavailability in rat at 8.4 mg/kg, po; type: ADME, organism-based; conditions: in vivo
[8] = Bioavailability in rat at 8 mg/kg, po; type: ADME, organism-based; conditions: in vivo
[9] = Half life in rat at 8 mg/kg, po; type: ADME, organism-based; set-up: dose 8 mg/kg, route oral; conditions: in vivo
[10] = Half life in rat at 0.8 mg/kg, iv; type: ADME, organism-based; set-up: dose 0.8 mg/kg, route intravenous; conditions: in vivo
[11] = Volume of distribution at steady state in rat at 0.8 mg/kg, iv or 8 mg/kg, po; type: ADME, organism-based; conditions: in vivo, read-out: Vdss
[12] = AUC in rat at 8 mg/kg, po; type: ADME, organism-based; set-up: dose 8 mg/kg, route oral; conditions: plasma
[13] = AUC in rat at 11.6 mg/kg, po; type: ADME, organism-based; set-up: dose 11.6 mg/kg, route oral; conditions: plasma
[14] = Half life in rat at 11.6 mg/kg, po; type: ADME, organism-based; set-up: dose 11.6 mg/kg, route oral; conditions: in vivo
[15] = Half life in rat at 1.0 mg/kg, iv; type: ADME, organism-based; set-up: dose 1 mg/kg, route intravenous; conditions: in vivo
[16] = Bioavailability in rat at 11.6 mg/kg, po; type: ADME, organism-based; conditions: in vivo
[17] = Volume of distribution at steady state in rat at 1.0 mg/kg, iv or 11.6 mg/kg, po; type: ADME, organism-based; conditions: in vivo, read-out: Vdss

half-life (in vitro [1]) [h] | half-life (in vitro [2]) [h] | SMILES | other results
2.93 | 0.4 | Cn1cnc2cc(Br)c(-c3ccccc3Cl)c(CN)c21 | –
1.67 | 0.65 | Cn1cnc2ccc(-c3ccccc3CO)c(CN)c21 | –
0.483 | 0.217 | Cn1nnc2ccc(-c3ccccc3Cl)c(CN)c21 | –
1.55 | 0.767 | Cn1cnc2ccc(-c3ccccc3)c(CN)c21 | –
3.05 | 0.467 | Cc1ccccc1-c1ccc2ncn(C)c2c1CN | –
> 3.33 | 1.27 | Cn1c(=O)[nH]c2ccc(-c3ccccc3Cl)c(CN)c21 | AUC [3]: 9 µg·h/mL; half-life [4]: 4 h; half-life [5]: 4.2 h; Vd [6]: 1.14 L/kg; bioavailability [7]: 49%
2.15 | 0.767 | NCc1c(-c2ccc(Cl)cc2Cl)ccc2nc[nH]c12 | –
1.6 | 0.433 | Cn1c(-c2cccnc2)nc2ccc(-c3ccccc3Cl)c(CN)c21 | –
> 3.33 | 0.117 | Cc1nc2ccc(-c3ccccc3Cl)c(CN)c2n1C | –
> 3.33 | 0.0333 | CCc1nc2ccc(-c3ccccc3Cl)c(CN)c2n1C | –
> 3.33 | 0.533 | NCc1c(-c2ccccc2Cl)ccc2ncn(CCO)c12 | –
> 3.33 | > 3.33 | Cn1cnc2cc(C(N)=O)c(-c3ccccc3Cl)c(CN)c21 | –
0.133 | 0.0667 | NCc1c(-c2ccccc2Cl)ccc2ncn(Cc3ccccc3)c12 | –
> 3.33 | 0.767 | Cn1cnc2ccc(-c3ccc(Cl)cc3Cl)c(CN)c21 | bioavailability [8]: 100%; half-life [9]: 4.4 h; half-life [10]: 7 h; Vd [11]: 4.81 L/kg; AUC [12]: 11.5 µg·h/mL
> 3.33 | 0.95 | Cn1cnc2ccc(-c3ccccc3Cl)c(CN)c21 | –
> 3.33 | 0.183 | COCc1nc2ccc(-c3ccccc3Cl)c(CN)c2n1C | –
> 3.33 | 0.7 | CCn1cnc2ccc(-c3ccc(Cl)cc3Cl)c(CN)c21 | –
> 3.33 | 0.633 | Cn1cnc2cc(C#N)c(-c3ccccc3Cl)c(CN)c21 | AUC [13]: 22.1 µg·h/mL; half-life [14]: 2.9 h; half-life [15]: 3.8 h; bioavailability [16]: 122%; Vd [17]: 1.07 L/kg
